Measurements taken from ChEMBL document CHEMBL1201862, “PubChem BioAssay data set” (2004).
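Assay format: 96-well plates, 48-hour exposure. Here, GI50 denotes the concentration required for 50% inhibition of growth.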 Calls of active or inactive are those of the source. No stated cut-off is given here; in the data, active = GI50 up to about 1.1 µM and inactive = higher.

Experiments:
Experiment in all cases: NCI-60 cell line screen, 48 h
ACHN = test system: ACHN
HL-60 = test system: HL-60
MDA-MB-231 = test system: MDA-MB-231
EKVX = test system: EKVX
NCI-H522 = test system: NCI-H522
NCI-H23 = test system: NCI-H23
M14 = test system: M14
SK-MEL-5 = test system: SK-MEL-5
NCI-H226 = test system: NCI-H226
COLO 205 = test system: COLO 205
PC-3 = test system: PC-3
Hs-578T = test system: Hs-578T
KM12 = test system: KM12
T47D = test system: T47D
SK-MEL-2 = test system: SK-MEL-2
SK-OV-3 = test system: SK-OV-3
SK-MEL-28 = test system: SK-MEL-28
BT-549 = test system: BT-549
LOX IMVI = test system: LOX IMVI
SN12C = test system: SN12C

Measured: GI50

O=C(O)CCN(CCC(=O)O)c1ccc(/C=C2\SC(=S)NC2=O)cc1
inactive: ACHN > 100 µM | HL-60 > 100 µM | MDA-MB-231 > 100 µM | EKVX > 100 µM | NCI-H522 91.6 µM | NCI-H23 > 100 µM | M14 > 100 µM | SK-MEL-5 > 100 µM | NCI-H226 > 100 µM | COLO 205 > 100 µM | PC-3 > 100 µM | Hs-578T > 100 µM | KM12 > 100 µM | T47D > 100 µM | SK-MEL-2 > 100 µM | SK-OV-3 > 100 µM | SK-MEL-28 > 100 µM | BT-549 > 100 µM | LOX IMVI > 100 µM | SN12C > 100 µM

O=[N+]([O-])c1cccc(-c2cn3c(n2)Cc2ccccc2C3)c1
inactive: ACHN > 100 µM | HL-60 > 100 µM | MDA-MB-231 18.8 µM | EKVX 90.2 µM | NCI-H522 34.4 µM | NCI-H23 59.6 µM | M14 42.4 µM | SK-MEL-5 28.6 µM | NCI-H226 > 100 µM | COLO 205 45.5 µM | PC-3 77.4 µM | Hs-578T 85.3 µM | KM12 24.9 µM | T47D 17.1 µM | SK-MEL-2 34.9 µM | SK-OV-3 > 100 µM | SK-MEL-28 > 100 µM | BT-549 > 100 µM | LOX IMVI 39.8 µM | SN12C > 100 µM

C[C@@H]1[C@@H](C)C(c2ccccc2)O[Si]1(C(C)(C)C)C(C)(C)C (stereo partly drawn)
inactive: ACHN 17.7 µM | HL-60 > 10 µM | MDA-MB-231 16.9 µM | EKVX 17.1 µM | NCI-H522 15.1 µM | NCI-H23 15.6 µM | M14 18.2 µM | SK-MEL-5 17.4 µM | NCI-H226 18.1 µM | COLO 205 15.7 µM | PC-3 17.1 µM | Hs-578T 20.9 µM | KM12 16.3 µM | T47D 19.1 µM | SK-MEL-2 15.8 µM | SK-OV-3 26.5 µM | SK-MEL-28 24.9 µM | BT-549 24.4 µM | LOX IMVI 16.9 µM | SN12C 17.4 µM

O=P1(Cc2ccccc2)N(Cc2ccccc2)[C@@H]2CCCC[C@H]2N1Cc1ccccc1
inactive: ACHN 12.4 µM | HL-60 4.67 µM | MDA-MB-231 10.6 µM | EKVX 9.62 µM | NCI-H522 3.97 µM | NCI-H23 9.98 µM | M14 4.34 µM | SK-MEL-5 1.79 µM | NCI-H226 2.2 µM | COLO 205 5.77 µM | PC-3 4.18 µM | Hs-578T 10.7 µM | KM12 5.86 µM | T47D 5.48 µM | SK-MEL-2 11.2 µM | SK-OV-3 13 µM | SK-MEL-28 16.8 µM | BT-549 17.7 µM | LOX IMVI 12.2 µM | SN12C 10.4 µM

O=P(O)(O)CN1CCNCCN(CP(=O)(O)O)CCN(CP(=O)(O)O)CCNCC1
inactive: ACHN > 100 µM | HL-60 1.73 µM | MDA-MB-231 > 100 µM | EKVX > 100 µM | NCI-H522 > 100 µM | NCI-H23 > 100000 µM | M14 > 100 µM | SK-MEL-5 77300 µM | NCI-H226 9.48 µM | COLO 205 44200 µM | PC-3 > 100 µM | Hs-578T > 100 µM | KM12 55200 µM | T47D 48300 µM | SK-MEL-2 99300 µM | SK-OV-3 > 100 µM | SK-MEL-28 > 100 µM | BT-549 > 100 µM | LOX IMVI 91800 µM | SN12C > 100 µM

CCCCCCCC/C=C1\CCC(CN2CCOCC2)C1=O (stereo not drawn)
inactive: ACHN 16.4 µM | HL-60 3.11 µM | MDA-MB-231 2.23 µM | EKVX 17.7 µM | NCI-H522 2.69 µM | NCI-H23 10.2 µM | M14 5.37 µM | SK-MEL-5 10.1 µM | NCI-H226 17.4 µM | COLO 205 5.77 µM | PC-3 11.2 µM | Hs-578T 4.36 µM | KM12 3.41 µM | T47D 1.85 µM | SK-MEL-2 14.8 µM | SK-OV-3 19.9 µM | SK-MEL-28 9.35 µM | BT-549 10.8 µM | LOX IMVI 3.43 µM | SN12C 5.7 µM

N=c1c2c3n(c4c(=O)n(-c5ccccc5)c(=S)n(c(=O)n1-c1ccccc1)c24)CCCCC3
inactive: ACHN > 100 µM | HL-60 > 100 µM | MDA-MB-231 > 100 µM | EKVX > 91.4 µM | NCI-H522 > 100 µM | NCI-H23 > 100 µM | M14 > 100 µM | SK-MEL-5 > 100 µM | NCI-H226 > 100 µM | COLO 205 > 100 µM | PC-3 > 100 µM | Hs-578T > 100 µM | KM12 > 100 µM | T47D 55.6 µM | SK-MEL-2 > 100 µM | SK-OV-3 > 81.1 µM | SK-MEL-28 > 100 µM | BT-549 > 100 µM | LOX IMVI > 100 µM | SN12C > 100 µM

Nn1c(Sc2nc3ccccc3c(=O)n2N)nc2ccccc2c1=O
inactive: ACHN 8.95 µM | HL-60 2.51 µM | MDA-MB-231 7.93 µM | EKVX 17.5 µM | NCI-H522 1.69 µM | NCI-H23 1.91 µM | M14 1.8 µM | SK-MEL-5 3.96 µM | NCI-H226 1.71 µM | COLO 205 13.8 µM | PC-3 11.7 µM | Hs-578T 17.1 µM | KM12 11.7 µM | T47D 5.09 µM | SK-MEL-2 3.24 µM | SK-OV-3 20.4 µM | SK-MEL-28 4.84 µM | BT-549 1.77 µM | LOX IMVI 1.64 µM | SN12C 5.75 µM

N#C/C(=C\c1ccccc1)C(=O)Nc1nnc(-c2ccccc2)o1
inactive: ACHN 35.6 µM | HL-60 20.7 µM | MDA-MB-231 31.5 µM | EKVX 47.3 µM | NCI-H522 38 µM | NCI-H23 39 µM | M14 37.8 µM | SK-MEL-5 19 µM | NCI-H226 44.9 µM | COLO 205 28.3 µM | PC-3 42.1 µM | Hs-578T > 100 µM | KM12 41.8 µM | T47D 31.3 µM | SK-MEL-2 52.1 µM | SK-OV-3 31.8 µM | SK-MEL-28 39.9 µM | BT-549 28.2 µM | LOX IMVI 37.5 µM | SN12C 36.7 µM

Cc1cc(S(=O)(=O)Nc2nc(-c3ccccn3)n[nH]2)c(S)cc1Cl
inactive: ACHN 15.8 µM | HL-60 16.1 µM | MDA-MB-231 29.2 µM | EKVX 16.1 µM | NCI-H522 27.4 µM | M14 15.2 µM | SK-MEL-5 8.55 µM | NCI-H226 12.3 µM | COLO 205 25.9 µM | PC-3 31.1 µM | Hs-578T 28.8 µM | KM12 20.4 µM | T47D 15.3 µM | SK-MEL-2 10.3 µM | SK-OV-3 12.9 µM | SK-MEL-28 35.1 µM | BT-549 17.9 µM | LOX IMVI 27.2 µM | SN12C 36.2 µM

O=C1NN=C(c2c[nH]c3ccccc23)CC1NCc1ccccc1 (stereo not drawn)
inactive: ACHN > 100 µM | HL-60 > 100 µM | MDA-MB-231 > 100 µM | NCI-H522 > 100 µM | NCI-H23 > 100 µM | M14 > 100 µM | SK-MEL-5 > 100 µM | NCI-H226 > 100 µM | COLO 205 > 100 µM | PC-3 > 100 µM | Hs-578T > 100 µM | KM12 > 100 µM | T47D > 100 µM | SK-MEL-2 > 100 µM | SK-OV-3 > 100 µM | SK-MEL-28 > 100 µM | BT-549 > 100 µM | LOX IMVI > 100 µM | SN12C > 100 µM

CSc1nc(SC)c2c(C)cn(COCCOC(=O)c3ccccc3)c2n1
inactive: ACHN > 100 µM | HL-60 36.7 µM | MDA-MB-231 > 100 µM | EKVX > 100 µM | NCI-H522 > 100 µM | NCI-H23 > 100 µM | M14 > 100 µM | SK-MEL-5 > 100 µM | NCI-H226 > 100 µM | COLO 205 > 100 µM | PC-3 74.5 µM | Hs-578T 54.1 µM | KM12 > 100 µM | T47D 32.8 µM | SK-MEL-2 > 100 µM | SK-OV-3 24.3 µM | SK-MEL-28 > 100 µM | BT-549 > 100 µM | LOX IMVI 58.2 µM | SN12C > 100 µM

CCCC(C)c1c(Cl)nc(Cl)nc1Cl (stereo not drawn)
inactive: ACHN 4.21 µM | HL-60 2.1 µM | MDA-MB-231 9.27 µM | EKVX 18.3 µM | NCI-H522 1.13 µM | NCI-H23 3.18 µM | M14 1.71 µM | SK-MEL-5 3.41 µM | NCI-H226 4.34 µM | COLO 205 4.4 µM | PC-3 14.8 µM | Hs-578T 9.38 µM | KM12 2.47 µM | T47D 6.38 µM | SK-MEL-2 23.9 µM | SK-OV-3 20.2 µM | SK-MEL-28 3.52 µM | BT-549 1.99 µM | LOX IMVI 1.66 µM | SN12C 7.94 µM

CCC1CC(=O)N(SCC(N)C(=O)O)C1=O (stereo not drawn)
inactive: ACHN > 100 µM | HL-60 > 100 µM | MDA-MB-231 > 100 µM | EKVX > 100 µM | NCI-H522 > 100 µM | NCI-H23 > 100 µM | M14 > 100 µM | SK-MEL-5 > 100 µM | NCI-H226 > 100 µM | COLO 205 > 100 µM | PC-3 > 100 µM | Hs-578T > 100 µM | KM12 > 100 µM | T47D > 100 µM | SK-MEL-2 > 100 µM | SK-OV-3 > 100 µM | SK-MEL-28 > 100 µM | BT-549 > 100 µM | LOX IMVI > 100 µM | SN12C > 100 µM
